# Data as given in patent US20260191863A1, “PYRROLOPYRIMIDINE COMPOSITIONS FOR TREATMENT OF ITK MEDIATED CONDITIONS” (ACLARIS THERAPEUTICS, INC., priority 2022, published 2026).
# “And” between values parts separate entries of the source, which are not always exact repeats. Equal entries are not always repeated. Where two headings read alike, the source gives them in different places.
# Columns and labels:
# [1] = Phase 1 multiple ascending dose (MAD) study: pharmacokinetics; assay type: in vivo, human; settings: plasma, oral; for AUC(0-inf): read-out: Geometric Mean AUCINF_obs; for AUC(0-t): read-out: Geometric Mean AUC_0-12; for Tmax: read-out: Geometric Mean Tmax; for AUC: read-out: AUC0-τ
# Description: Secondary Endpoints—Compound I plasma concentrations and PK parameters: AUC0-tau, AUC0-inf, Ctrough, Cmax, tmax, Kel, t1/2, CLss/F, Vss/F, Rae.
# Overall Design—This was a randomized, Investigator and participant-blind. Sponsor-unblinded, placebo-controlled study designed to evaluate the safety, tolerability, PK, and PD of Compound I in healthy participants. The study consisted of multiple cohorts assessing ascending doses of Compound I.
# Approximately 60 participants were enrolled into 5 cohorts. At each dose level/cohort, a total of 10 participants were randomized to receive 2 weeks of oral doses of Compound I (n=8) or placebo (n=2). In Cohort 3, 20 participants were randomized to receive multiple oral doses of Compound I QD (n=8), Compound I TID (n=8), placebo QD (n=2), or placebo TID (n=2).
# The study started with a planned dose of 5 mg twice daily (BID). Escalation to the next higher cohort was dependent on safety and PK data from all participants in the previous cohorts and was based on data from at least 6 participants up to at least 48 hours after the last dose. In no instance did the dose escalation steps exceed 3-fold the prior dose level.
# ITK & JAK (IFNγ protein) = experiment: Pre-clinical human whole blood αCD3 + IL-15/IFNγ (18 hr); assay type: cell-based
# [2] = 13 week toxicology and toxicokinetic study in cynomolgus monkeys; assay type: in vivo, cynomolgus monkey; settings: for AUC(0-t) / Cmax: in vivo
# Description: Purpose: Evaluation of toxicity and toxicokinetic (TK) for Compound I, following daily dosing for 13 weeks.
# [3] = human, 30 mg, Cohort 3a, 30 mg QD, Day 1
# [4] = human, 30 mg, Cohort 3a, 30 mg QD, Day 7
# [5] = human, 30 mg, Cohort 3a, 30 mg QD, Day 15
# [6] = human, 40 mg, Cohort 5, 40 mg BID, Day 1
# [7] = human, 40 mg, Cohort 5, 40 mg BID, Day 7
# [8] = human, 40 mg, Cohort 5, 40 mg BID, Day 15
structure (smiles),measurement,setting,value
"C=CC(=O)N1C[C@H](Nc2ncnc3[nH]cc([C@H]4CC4(F)F)c23)CC[C@@H]1C [Compound I, 1-((2S,5R)-5-((5-((R)-2,2-difluorocyclopropyl)-7H-pyrrolo[2,3-d]pyrimidin-4-yl)amino)-2-methylpiperidin-1-yl)prop-2-en-1-one]",Cmax,"[1]; human, 25 mg, Human 25 mg, read-out: Cmax",81.8 ng/mL
same,AUC(0-inf),[1]; [3],312 ng·h/mL
same,AUC(0-t),[1]; [3],308 ng·h/mL
same,Cmax,"[1]; human, 30 mg, Cohort 3a, 30 mg QD, Day 1, read-out: Geometric Mean Cmax",104 ng/mL
same,Tmax,[1]; [3],40.8 min
same,AUC(0-inf),[1]; [4],375 ng·h/mL
same,AUC(0-t),[1]; [4],366 ng·h/mL
same,Cmax,"[1]; human, 30 mg, Cohort 3a, 30 mg QD, Day 7, read-out: Geometric Mean Cmax",124 ng/mL
same,Tmax,[1]; [4],52.2 min
same,AUC(0-inf),[1]; [5],400 ng·h/mL
same,AUC(0-t),[1]; [5],392 ng·h/mL
same,Cmax,"[1]; human, 30 mg, Cohort 3a, 30 mg QD, Day 15, read-out: Geometric Mean Cmax",119 ng/mL
same,Tmax,[1]; [5],57.6 min
same,Cmax,"[1]; human, 30 mg, Human 30 mg, read-out: Cmax",119 ng/mL
same,AUC(0-inf),[1]; [6],288 ng·h/mL
same,AUC(0-t),[1]; [6],285 ng·h/mL
same,Cmax,"[1]; human, 40 mg, Cohort 5, 40 mg BID, Day 1, read-out: Geometric Mean Cmax",102 ng/mL
same,Tmax,[1]; [6],50.4 min
same,AUC(0-inf),[1]; [7],487 ng·h/mL
same,AUC(0-t),[1]; [7],480 ng·h/mL
same,Cmax,"[1]; human, 40 mg, Cohort 5, 40 mg BID, Day 7, read-out: Geometric Mean Cmax",158 ng/mL
same,Tmax,[1]; [7],55.2 min
same,AUC(0-inf),[1]; [8],484 ng·h/mL
same,AUC(0-t),[1]; [8],472 ng·h/mL
same,Cmax,"[1]; human, 40 mg, Cohort 5, 40 mg BID, Day 15, read-out: Geometric Mean Cmax",138 ng/mL
same,Tmax,[1]; [8],63 min
same,concentration at 6 h,"[1]; human, 15 mg BID, steady-state, 6 hours post-dose",4.3 ng/mL
same,concentration at 8 h,"[1]; human, 25 mg BID, steady-state, 8 hours post-dose",5.7 ng/mL
same,concentration at 11.5 h,"[1]; human, 30 mg QD, steady-state, 11.5 hours post-dose",~4 ng/mL
same,AUC,[1]; Human 15 mg,110 ng·h/mL
same,AUC,[1]; Human 25 mg,240 ng·h/mL
same,AUC,[1]; Human 30 mg,392 ng·h/mL
same,"Potency relative to Ritlecitinib, αCD3 + IL-15/IFNγ (18 hr)",ITK & JAK (IFNγ protein),(3.3 fold*)
same,IC50,ITK & JAK (IFNγ protein); Homo sapiens,0.0036 µg/mL and 10.1 nM
same,EC50,"ITK & JAK (IFNγ protein); Homo sapiens, 18 h, read-out: Human Whole Blood EC50, αCD3 + IL-15/IFNγ (18 hr)",10 nM
same,EC50,"ITK & JAK (IFNγ protein); Homo sapiens, read-out: Pre-clinical EC50",10.2 ± 4.1 nM
same,EC50,"ITK & JAK (IFNγ protein); human whole blood dual stimulation, read-out: Human Compound I Cp to reach HWB dual stim EC50 (in vitro report)",≥ 4.19 ng/mL
same,No observed adverse effect level,"[2]; cynomolgus monkey, daily dosing 13 weeks",3 mpk
same,AUC(0-t),"[2]; cynomolgus monkey, 3 mg/kg, monkey 3 mpk, Day 1, read-out: AUC0-24",153 ± 29.1 ng·h/mL
same,Cmax,"[2]; cynomolgus monkey, 3 mg/kg, monkey 3 mpk, Day 1, read-out: Cmax",104 ± 48.9 ng/mL
same,AUC(0-t),"[2]; cynomolgus monkey, 3 mg/kg, monkey 3 mpk, Day 28, read-out: AUC0-24",412 ± 191 ng·h/mL
same,Cmax,"[2]; cynomolgus monkey, 3 mg/kg, monkey 3 mpk, Day 28, read-out: Cmax",304 ± 156 ng/mL
same,AUC(0-t),"[2]; cynomolgus monkey, 3 mg/kg, monkey, NOAEL 3 mpk, read-out: AUC0-24 h at NOAEL",356 ng·h/mL
same,Cmax,"[2]; cynomolgus monkey, 3 mg/kg, monkey, NOAEL 3 mpk, read-out: Cmax at NOAEL",232 ng/mL
same,AUC(0-t),"[2]; cynomolgus monkey, 6 mg/kg, monkey 6 mpk, Day 1, read-out: AUC0-24",692 ± 223 ng·h/mL
same,Cmax,"[2]; cynomolgus monkey, 6 mg/kg, monkey 6 mpk, Day 1, read-out: Cmax",401 ± 153 ng/mL
same,AUC(0-t),"[2]; cynomolgus monkey, 6 mg/kg, monkey 6 mpk, Day 28, read-out: AUC0-24",1880 ± 911 ng·h/mL
same,Cmax,"[2]; cynomolgus monkey, 6 mg/kg, monkey 6 mpk, Day 28, read-out: Cmax",985 ± 475 ng/mL
same,AUC(0-t),"[2]; cynomolgus monkey, 6 mg/kg, monkey 6 mpk, Day 91, read-out: AUC0-24",1410 ± 6190 ng·h/mL
same,Cmax,"[2]; cynomolgus monkey, 6 mg/kg, monkey 6 mpk, Day 91, read-out: Cmax",784 ± 512 ng/mL
same,AUC(0-t),"[2]; cynomolgus monkey, 12 mg/kg, monkey 12 mpk, Day 1, read-out: AUC0-24",2510 ± 1420 ng·h/mL
same,Cmax,"[2]; cynomolgus monkey, 12 mg/kg, monkey 12 mpk, Day 1, read-out: Cmax",975 ± 648 ng/mL
same,AUC(0-t),"[2]; cynomolgus monkey, 12 mg/kg, monkey 12 mpk, Day 28, read-out: AUC0-24",6930 ± 3790 ng·h/mL
same,Cmax,"[2]; cynomolgus monkey, 12 mg/kg, monkey 12 mpk, Day 28, read-out: Cmax",2160 ± 724 ng/mL
same,AUC(0-t),"[2]; cynomolgus monkey, 12 mg/kg, monkey 12 mpk, Day 91, read-out: AUC0-24",6430 ± 3660 ng·h/mL
same,Cmax,"[2]; cynomolgus monkey, 12 mg/kg, monkey 12 mpk, Day 91, read-out: Cmax",1960 ± 677 ng/mL
same,Ratio over time (D 91/D 1) AUC,[2]; monkey 3 mpk,2.4
same,Ratio over time (D 91/D 1) Cmax,[2]; monkey 3 mpk,2.8
same,Ratio over time (D 91/D 1) AUC,[2]; monkey 6 mpk,2.2
same,Ratio over time (D 91/D 1) Cmax,[2]; monkey 6 mpk,2.2
same,Ratio over time (D 91/D 1) AUC,[2]; monkey 12 mpk,2.6
same,Ratio over time (D 91/D 1) Cmax,[2]; monkey 12 mpk,2.5
same,Morbidity / un-scheduled sacrifice,"[2]; monkey, 12 mpk, 12 mg/kg",morbidity and significant symptoms necessitating un-scheduled sacrifice and dosing holiday
same,"Effects on body weight (overall), food consumption (overall), clinical pathology in general, anatomic pathology, ophthalmology","[2]; monkey, 13 weeks",No adverse effects observed
same,Opportunistic infection in GI tract,"[2]; monkey, 13 weeks",dose-dependent opportunistic infection in GI tract
same,Adverse effects,"[2]; monkey, more significant and persistent in mid/high dose groups",Liquid and non-formed feces associated with dehydration
